# Earlier results, collected in patent US8496977B2, “Natural extract from whole banana fruit (Musa Spp)” (priority 2009, dated 2013).
# How the values were obtained:
# eicosanoid synthesis = conditions: by modulating eicosanoid synthesis
compound,measurement,setting,value
NCCc1ccc(O)c(O)c1 [dopamine],radical-scavenging rate,compared with catechin and gallocatechin gallate,faster radical-scavenging rate than catechin
same,antioxidative potency,compared with other antioxidants,"greater than that of BHA, BHT, flavonoids, glutathione, and catechin"
same,protection against intestinal mucosal injury,eicosanoid synthesis,protect against intestinal mucosal injury
